Molecular target: T1, TLR4 (Mus musculus, UniProt Q9QUK6)
T1 construct: endogenous in cells; host or cells: RAW 264.7
T1 sequence (Q9QUK6 26-835): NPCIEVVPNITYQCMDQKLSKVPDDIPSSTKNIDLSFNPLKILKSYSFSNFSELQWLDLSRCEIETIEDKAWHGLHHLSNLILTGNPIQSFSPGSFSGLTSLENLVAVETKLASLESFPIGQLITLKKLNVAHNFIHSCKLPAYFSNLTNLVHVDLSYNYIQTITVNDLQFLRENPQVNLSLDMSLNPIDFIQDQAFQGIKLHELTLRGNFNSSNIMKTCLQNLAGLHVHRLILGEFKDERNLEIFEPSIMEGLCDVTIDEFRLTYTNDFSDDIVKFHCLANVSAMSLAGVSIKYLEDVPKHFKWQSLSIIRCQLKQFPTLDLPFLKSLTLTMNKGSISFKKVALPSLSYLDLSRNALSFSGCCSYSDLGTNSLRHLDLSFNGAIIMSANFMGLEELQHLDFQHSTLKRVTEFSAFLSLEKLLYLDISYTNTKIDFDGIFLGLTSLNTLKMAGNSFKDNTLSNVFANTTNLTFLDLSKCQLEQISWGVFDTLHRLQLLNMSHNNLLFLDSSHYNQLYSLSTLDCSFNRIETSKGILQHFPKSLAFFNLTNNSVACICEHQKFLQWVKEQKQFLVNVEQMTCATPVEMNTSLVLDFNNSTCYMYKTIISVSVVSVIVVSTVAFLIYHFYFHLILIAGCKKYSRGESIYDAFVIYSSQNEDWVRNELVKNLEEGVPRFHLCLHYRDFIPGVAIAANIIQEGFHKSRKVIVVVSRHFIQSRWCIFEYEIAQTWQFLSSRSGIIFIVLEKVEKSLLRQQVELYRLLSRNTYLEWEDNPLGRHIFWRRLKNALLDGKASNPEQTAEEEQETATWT
T1 sequence (Q9JHF9 19-160 partner): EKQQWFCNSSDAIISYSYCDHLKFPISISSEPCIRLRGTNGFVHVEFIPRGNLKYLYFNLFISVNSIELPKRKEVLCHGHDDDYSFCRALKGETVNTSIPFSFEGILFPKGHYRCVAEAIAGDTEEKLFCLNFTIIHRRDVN
Assay: TLR4-mediated TNF-α secretion (LPS), ELISA
Format: cell-based, murine
Settings: RAW 264.7, 10 or 20 μM
Method: Agonists specific to TLR1/TLR2 (Pam3CSK4), TLR2/TLR6 (FSL-1), TLR3 (Poly I:C), TLR7 (imiquimod), and TLR8 (TL8-506) were purchased from InvivoGen Ltd. (Hong-Kong, China), and a TLR4-specific agonist (LPS from E. coli O111:B4) was purchased from Sigma-Aldrich, Inc. For TLR9-specific stimulation, class C CpG-ODN (ODN2395, 5′-TCGTCGTTTTCGGCGCGCGCCG-3′) having full phosphorothioate backbone modification was synthesized (Bioneer, Inc., Daejeon, Korea). All TLR agonists were dissolved in deionized water and applied to a culture media for TLR activation. The cells were treated with test compounds or a control medium for 1 hour, and then stimulated with a TLR agonist for 4 hours, or 24 hours in the case of poly(I:C), and the cytokine secretion was monitored.
RAW 264.7 or differentiated THP-1 cell lines were seeded onto a 96-well culture plate at a density of 2×10^4 cells/well. The cells were treated with test compounds for 1 hour followed by the stimulation with TLR agonists for 4 hours. The supernatant was transferred to pre-coated assay plates, and the secretion levels of mouse and human TNF-α were measured by respective ELISA kits (Invitrogen, Carlsbad, CA, USA). […] Absorbance was measured by a microplate reader spectrophotometer (Molecular Devices, Inc., San Jose, CA, USA), and data was interpolated from a standard curve using SoftMax Pro 5.3 software (Molecular Devices, Inc.). […]

SMILES: COc1ccc(CNc2ncc(-c3ccc4c(c3)OCO4)n2C)c(OC)c1 [TIC10-7, 5-(2H-1,3-benzodioxol-5-yl)-N-[(2,4-dimethoxyphenyl)methyl]-1-methyl-1H-imidazol-2-amine]
- effect on TLR4-mediated cytokine (TNF-α) production: no effect
